# Article PMC12612594, “Nuclear Magnetic Resonance‐based fragment screen of the E3 ligase Fem‐1 homolog B” (Protein Science : A Publication of the Protein Society, 2025)
# pIC50, pKd: −log10 of the molar value.
# What was measured:
# recombinant mouse FEM1B = test system: recombinant mouse FEM1B; design: method as in Henning et al., [2022]; conditions: TAMARA‐FNIP1 degron, ref Henning et al., [2022], read-out: 50% inhibitory concentration (IC50); cited from earlier work
# FEM1B [1] = test system: FEM1B; design: method as in Henning et al., [2022]; conditions: ref Henning et al., [2022]; cited from earlier work
# FEM1B‐12 = FEM1B‐12 (Homo sapiens, UniProt Q9UK73); assay: NMR titration (1H-13C-methyl SOFAST HMQC) of fragments; format: binding; conditions: for pKd: fragment 0.0625–2 mM, 100 μM 13C-methyl labeled FEM1B‐12, 310 K, Hill's equation model, read-out: Kd (dissociation constant by NMR titration); for higher affinity than the reference molecule VU0417412: ratio of KD values vs VU0417412
# Sequence of FEM1B‐12 (Q9UK73 1-356): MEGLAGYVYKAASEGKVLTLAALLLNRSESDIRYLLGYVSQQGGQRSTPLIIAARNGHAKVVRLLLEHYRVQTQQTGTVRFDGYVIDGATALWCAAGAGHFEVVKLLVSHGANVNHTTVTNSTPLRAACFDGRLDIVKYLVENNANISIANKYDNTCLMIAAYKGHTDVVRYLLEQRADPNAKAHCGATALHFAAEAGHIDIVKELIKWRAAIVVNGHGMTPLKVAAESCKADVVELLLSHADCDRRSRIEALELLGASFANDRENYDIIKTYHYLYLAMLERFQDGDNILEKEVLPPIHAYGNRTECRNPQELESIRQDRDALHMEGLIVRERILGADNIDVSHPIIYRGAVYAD
# Experimental: Using ^1H‐^13C‐methyl SOFAST HMQC NMR, 4608 structurally diverse fragments were prepared as 12‐fragment mixtures at the concentration of 800 μM per compound and screened against 100 μM FEM1B‐12. The spectra of FEM1B in the presence of the fragment mixtures were compared to the spectrum of ligand‐free FEM1B to identify fragment hits. Twelve‐fragment mixture hits were subsequently deconvoluted by testing individual fragments for binding. In total, 18 fragment hits were identified ([…]) in the screen. Three chemical shift patterns were observed among the 18 fragment hits (Figure 2), with pattern three having two sub‐patterns with the same residues shifting in different directions. […] The dissociation constants of the fragments were determined by NMR titration using fragment concentrations ranging from 0.0625 to 2 mM (Figure 2) (Henning et al., [2022]).
# All ^15N‐TROSY NMR experiments were carried out at 310 K using a 900 MHz Bruker Avance III spectrometer equipped with a TXI/TCI CryoProbe and a Bruker SampleJet. All 1H‐13C‐SOFAST HMQC NMR experiments were carried out at 310 K using a 600 MHz Bruker AV‐III‐600 Spectrometer with a TCI CryoProbe and a Bruker SampleJet. Two‐dimensional ^1H‐^15 TROSY spectra of 150 μM FEM1B‐12 and ^1H‐^13C‐SOFAST HMQC spectra of 100 μM FEM1B‐12 were recorded using 30‐min acquisition times and analyzed using Topspin 4.1.4 (Bruker).
# HMQC titration experiments were used to determine binding affinity of the fragment hits identified from the screen. The changes in ^1H‐^13C chemical shifts of selectively labeled sidechain resonances upon the addition of increasing concentrations of the fragments (0.0625–2 mM) were analyzed. The binding affinities (KDs) of the fragments were calculated using the Hill's equation model in Prism 10 (GraphPad).
# FEM1B [2] = assay: LC-coupled tandem mass spectrometry, site of covalent attachment; format: binding; conditions: FEM1B incubated with five times the concentration of compound for 48 h, trypsin digest, LC-MS/MS
# Experimental: To assess the potential for covalent binding of VU0416476 to FEM1B, we used LC‐coupled tandem mass spectrometry to identify the site of covalent attachment. After FEM1B was incubated with five times the concentration of VU0416476 for 48 h, the protein was digested with sequencing‐grade trypsin, and peptides were analyzed by LC‐MS/MS.
# FEM1B incubated with five times the concentration of VU0416476 were brought to a final concentration of 5% SDS, reduced with 20 mM DTT at 55°C for 20 min, and alkylated with 40 mM iodoacetamide for 30 min in the dark at room temperature. The samples were then prepared for digestion on S‐Trap™ micro spin columns (ProtiFi) following the manufacturer's instructions. Aqueous phosphoric acid was added to a final concentration of 2.5%, followed by the addition of 90% methanol containing 100 mM TEAB (S‐Trap binding/wash buffer) at 6× the volume. Samples were loaded onto S‐Trap columns and centrifuged at 4000g. Columns were washed four times with binding/wash buffer. […] Eluted peptides were dried in a speed‐vac concentrator, reconstituted in aqueous 0.2% formic acid, and analyzed by LC‐coupled tandem mass spectrometry (LC–MS/MS) using similar methods to those described in the work of Howard et al. ([2024]). […] Peptides were eluted at a flow rate of 350 nL/min, using a 90‐min gradient, and were analyzed on an Orbitrap Exploris 480 mass spectrometer (Thermo Scientific). […]
pKd (FEM1B‐12),Structure (SMILES),also measured
,N#CCCN(C(=O)CCl)c1ccc2c(c1)OCCO2 [EN106],pIC50 (recombinant mouse FEM1B): 5.66; site of covalent binding (FEM1B [1]): covalently bind to Cys186
4.10,CC(=O)c1cccc(NC(=O)c2cccs2)c1 [VU0013947],higher affinity than the reference molecule VU0417412 (FEM1B‐12): 3.5 ×
3.02,CC(C)(C)N1C(=O)c2ccc(C(=O)O)cc2C1=O [VU0023775],
2.95,O=C(O)c1cccc(N2CCCC2=O)c1 [VU0081201],
4.00,COCc1ccc(NC(=O)c2cccs2)cc1 [VU0175318],higher affinity than the reference molecule VU0417412 (FEM1B‐12): 2.8 ×
3.59,CC(C)c1ccc(NC(=O)c2cnccn2)cc1 [VU0412674],
,CC(C)(C)n1ncc(Cl)c(Cl)c1=O [VU0416476],site of covalent attachment (FEM1B [2]): covalently binds to Cys186
3.55,O=C(Nc1ccc(F)cc1)c1cccs1 [VU0417412],
